Laboratory results: patent publication US11179372B2, “Isoxazoline solution containing vitamin E for use with sanitized drinking water” (Intervet Inc., priority 2015, dated 2021)

Experiments:
[1] = Tolerance and plasma concentrations of Fluralaner in laying hens (Example 2); type: in vivo, chickens
Description: No vitamin E was present in the concentrated Fluralaner solution used to prepare the medicated drinking water.
The effectivity of an oral dosing regimen of Fluralaner was tested by administering medicated drinking water (via gavage) to laying hens, in 2 repeated doses of 0.25, 0.5 or 1.0 mg/kg body weight, administered 7 days apart, and challenging them with infestation by Northern fowl mites, via source birds and natural infestation. The birds were kept in separate pens, at 11 birds per pen.

[2] = Variation of concentration of vitamin E, Fluralaner in 5 ppm hypochlorite; type: physicochemical; conditions: used at 1:10.000; for Reduction t = 0 to t = 7 in %: 5 ppm ClO-, 40° C./75% RH
Description: While in Example 4.3 alpha-tocopherol was used in the pharmaceutical composition at 8.2% w/w, it was now tested at 80% of that value, namely at 6.6% w/w. Pharmaceutical compositions according to the invention were prepared, containing either 8.2 or 6.6% w/w alpha-tocopherol. Also one base composition was prepared without protector. These were diluted 1:10.000 to prepare medicated drinking waters with 1 μg/ml Fluralaner. Next hypochlorite was added to 5 ppm, and 20 ml samples were filled-out in 50 ml glass vials, sealed with a rubber stopper, and stored for 7 days at 40° C./75% RH. The amount of Fluralaner of the three samples was measured at t=0 and at t=7 days using UHPLC. The concentration of the vitamin E in the final test sample was 1:10,000 of 6.6 or 8.2% w/w.

[3] = Residues and withdrawal time in treated birds; type: in vivo; conditions: treated layer birds, oral uptake
[4] = Vitamin E 0 % w/w in pharm. comp.
[5] = Vitamin E 6.6 % w/w in pharm. comp.
[6] = Vitamin E 8.2 % w/w in pharm. comp.

For Cc1cc(C2=NOC(c3cc(Cl)cc(Cl)c3)(C(F)(F)F)C2)ccc1C(=O)NCC(=O)NCC(F)(F)F (stereo not drawn) [Fluralaner], the “Tolerance in the hens” value ([1]; 2 single doses of 0.25, 0.5, or 1 mg/kg BW, 7 days apart, oral) was “well tolerated”, the “Concentrations of Fluralaner in the birds' plasma” value ([1]; doses 0.25, 0.5, 1.0 mg/kg BW twice) was “increased proportionally to the dose administered” and the “Fluralaner conc. after incubation in 5 ppm ClO- at 40° C./75% RH, for t = 0 d” value [2, 4] was 0.80 µg/mL. The “Fluralaner conc. after incubation in 5 ppm ClO- at 40° C./75% RH, for t = 7 d” value [2, 4] was 0.15 µg/mL, the “Reduction t = 0 to t = 7 in %” value [2, 4] was 81% and the “Fluralaner conc. after incubation in 5 ppm ClO- at 40° C./75% RH, for t = 0 d” value [2, 5] was 0.91 µg/mL. For the same compound, the “Fluralaner conc. after incubation in 5 ppm ClO- at 40° C./75% RH, for t = 7 d” value [2, 5] was 0.49 µg/mL, the “Reduction t = 0 to t = 7 in %” value [2, 5] was 46% and the “Fluralaner conc. after incubation in 5 ppm ClO- at 40° C./75% RH, for t = 0 d” value [2, 6] was 0.90 µg/mL. For the same compound, the “Fluralaner conc. after incubation in 5 ppm ClO- at 40° C./75% RH, for t = 7 d” value [2, 6] was 0.49 µg/mL, the “Reduction t = 0 to t = 7 in %” value [2, 6] was 46% and the “Residue levels in eggs” value [3] was “far below the MRL value”.
